This note sets out measurements from patent publication EP4559912A1, “SULFUR-CONTAINING HETEROAROMATIC RING COMPOUND, PHARMACEUTICAL COMPOSITION THEREOF, AND USE THEREOF” (Evopoint Biosciences Co., Ltd., priority 2022, dated 2024).

This experiment deals with His-GST tagged PARG (Homo sapiens, UniProt Q86W56). Briefly: In vitro PARG assay (TR-FRET). The experiment is classed as biochemical. Conditions: 4 pM His-GST tagged PARG, 30 nM Bio PARylated PARP1 substrate, 20 min at room temperature, TR-FRET Em 665/Em 615. The method, then:
The in vitro PARG assay experiment was conducted in a standard 384-well plate with a total volume of 15 µL. To a 384-well plate containing the test compound was added 5 µL of an enzyme reaction mixture (50 mM Tris-HCL pH 7.5, 50 mM KCL, 0.01% Triton X-100, 0.01% BSA, and 4 pM His-GST tagged PARG). The plate was incubated at room temperature for 10 min, and then 5 µL of a substrate mixture (50 mM Tris-HCL pH 7.5, 50 mM KCL, 0.01% Triton X-100, 0.01% BSA, and 30 nM Bio PARylated PARP1) was added to initiate the reaction. The plate was further incubated at room temperature for 20 min, and then 5 µL of a detection reagent was added to terminate the reaction. The detection reagent was prepared from a buffer (50 mM Tris-HCl pH 7.5, 50 mM KCL, 0.01% Triton X-100, and 0.01% BSA), 3 µM compound PDD00017273, 1.5× Mab anti-6HIS XL665 (Cisbio: 61HISXLA), and 1.5× streptavidin terbium cryptate (Cisbio: 610SATLA). The final concentrations of the compound PDD00017273, the 1.5× Mab anti-6HIS XL665 (Cisbio: 61HISXLA), and the 1.5× streptavidin terbium cryptate were 1 µM, 0.5×, and 0.5×, respectively. After incubation in the dark at room temperature for 120 min, TR-FRET signals were measured at Ex 340, Em 665, and Em 615. The ratio for each well was calculated as Em 665/Em 615 (the ratio here corresponds to the ratio of fluorescence signals at the wavelengths).

The term IC50 denotes the concentration at which inhibition is half-maximal. High values mean a need for much substance, low ones inhibition by little substance.

Sequence of His-GST tagged PARG (Q86W56 whole entry): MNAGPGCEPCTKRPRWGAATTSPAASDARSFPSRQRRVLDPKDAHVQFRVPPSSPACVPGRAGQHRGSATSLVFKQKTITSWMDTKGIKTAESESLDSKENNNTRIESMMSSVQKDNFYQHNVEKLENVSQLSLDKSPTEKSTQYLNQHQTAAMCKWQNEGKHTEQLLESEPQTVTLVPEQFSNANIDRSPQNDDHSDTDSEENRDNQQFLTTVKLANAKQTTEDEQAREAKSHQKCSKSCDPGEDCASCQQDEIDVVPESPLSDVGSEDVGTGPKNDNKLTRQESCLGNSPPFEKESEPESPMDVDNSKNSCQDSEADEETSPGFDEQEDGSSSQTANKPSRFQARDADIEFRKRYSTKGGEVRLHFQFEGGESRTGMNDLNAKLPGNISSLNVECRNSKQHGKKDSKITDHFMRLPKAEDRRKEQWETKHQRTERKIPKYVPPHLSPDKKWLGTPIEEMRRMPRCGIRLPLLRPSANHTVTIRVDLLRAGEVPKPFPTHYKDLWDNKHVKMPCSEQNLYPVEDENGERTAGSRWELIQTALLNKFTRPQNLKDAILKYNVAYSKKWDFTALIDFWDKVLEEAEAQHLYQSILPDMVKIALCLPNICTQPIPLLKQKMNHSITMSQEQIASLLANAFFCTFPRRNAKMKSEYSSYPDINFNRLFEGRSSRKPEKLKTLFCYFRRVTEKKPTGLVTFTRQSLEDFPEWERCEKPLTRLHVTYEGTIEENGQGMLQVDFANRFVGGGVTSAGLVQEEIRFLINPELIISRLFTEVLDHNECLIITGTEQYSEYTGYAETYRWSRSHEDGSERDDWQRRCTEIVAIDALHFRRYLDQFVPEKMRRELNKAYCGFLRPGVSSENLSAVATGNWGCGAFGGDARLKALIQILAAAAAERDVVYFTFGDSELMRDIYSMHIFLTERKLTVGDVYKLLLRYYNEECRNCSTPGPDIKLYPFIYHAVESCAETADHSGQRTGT

`CO[C@@H](C(=O)N1CCN(c2cc(S(=O)(=O)NC3(C#N)CC3)cc3c2cnn3-c2nnc(C(F)F)s2)C[C@H]1C)C(C)C` [EVO29418] registered an IC50 of under 100 nM. Then `C[C@@H]1CN(c2cc(S(=O)(=O)NC3(C#N)CC3)cc3c2cnn3-c2nnc(C(F)F)s2)CCN1C(=O)[C@@H](C)O` [EVO29285], with under 100 nM. Then `C[C@@H]1CN(c2cc(S(=O)(=O)NC3(C#N)CC3)cc3c2cnn3-c2nnc(C(F)F)s2)CCN1C(=O)C(=O)C(C)(C)C` [EVO29405], with under 100 nM; and `CCOC(C)(C)C(=O)N1CCN(c2cc(S(=O)(=O)NC3(C)CC3)cc3c2cnn3-c2nnc(C(F)F)s2)C[C@H]1C` [EVO29507], with under 100 nM.

The compound `CC(C)C(=O)C(=O)N1CCN(c2cc(S(=O)(=O)NC3(C#N)CC3)cc3c2cnn3-c2nnc(C(F)F)s2)C[C@H]1C` [EVO29291] returned an IC50 of under 100 nM.

With `C[C@@H]1CN(c2cc(S(=O)(=O)NC3(C#N)CC3)cc3c2cnn3-c2nnc(C(F)F)s2)CCN1C(=O)C(O)C(C)(C)CF` (single isomer, unassigned) [EVO29751P2], the IC50 is under 100 nM. Then `COC(C(=O)N1CCN(c2cc(S(=O)(=O)NC3(C#N)CC3)cc3c2cnn3-c2nnc(C(F)F)s2)C[C@H]1C)C1CC1` (single isomer, unassigned) [EVO29715P2], with under 100 nM.

In the case of `C[C@@H]1CN(c2c(F)c(S(=O)(=O)NC3(C#N)CC3)cc3c2c(F)nn3-c2nnc(C(F)F)s2)CCN1C(=O)[C@H](O)C(C)(C)C` [EVO29792], the IC50 fell in the range of 100 to 500 nM. Then `CC(C)C(=O)C(=O)N1CCN(c2cc(S(=O)(=O)NC3(C#N)CC3)cc3c2cnn3-c2nnc(C(F)F)s2)CC1` [EVO29417], with under 100 nM; and `C[C@@H]1CN(c2cc(S(=O)(=O)NC3(C#N)CC3)cc3c2cnn3-c2nnc(C(F)F)s2)CCN1C(=O)C(O)C(C)(C)CO` (single isomer, unassigned) [EVO29790P2], with under 100 nM. Then `C[C@@H]1CN(c2cc(S(=O)(=O)NC3(C)CC3)cc3c2c(F)nn3-c2nnc(C(F)F)s2)CCN1C(=O)[C@H](O)C(C)(C)C` [EVO29798], with under 100 nM; and `COC(C)(C)C(=O)N1CCN(c2cc(S(=O)(=O)NC3(C)CC3)cc3c2cnn3-c2nnc(C(F)F)s2)C[C@H]1C` [EVO29503], with under 100 nM. Then `C[C@@H]1CN(c2cc(S(=O)(=O)NC3(C)CC3)cc3c2cnn3-c2nnc(C(F)F)s2)CCN1C(=O)[C@@H](C)O` [EVO29337], with under 100 nM.

With `CC(C)[C@@H](O)C(=O)N1CCN(c2cc(S(=O)(=O)NC3(C#N)CC3)cc3c2cnn3-c2nnc(C(F)F)s2)C[C@H]1C` [EVO29335], the IC50 was under 100 nM. Then `C[C@@H](O)C(=O)N1CCN(c2cc(S(=O)(=O)NC3(C#N)CC3)cc3c2cnn3-c2nnc(C(F)F)s2)CC1` [EVO29284], with under 100 nM; and `C[C@@H]1CN(c2cc(S(=O)(=O)NC3(C#N)CC3)cc3c2cnn3-c2nnc(C(F)F)s2)CCN1C(=O)C(C)(C)OC(F)F` [EVO29592], with under 100 nM; and `C[C@@H]1CN(c2cc(S(=O)(=O)NC3(C#N)CC3)cc3c2cnn3-c2nnc(C(F)F)s2)CCN1C(=O)[C@H](O)C(C)(C)C` [EVO29451], with under 100 nM.

In turn, `C[C@@H]1CN(c2cc(S(=O)(=O)NC3(C#N)CC3)cc3c2cnn3-c2nnc(C(F)F)s2)CCN1C(=O)C(O)C(C)(C)CF` (single isomer, unassigned) [EVO29751P1] had an IC50 of under 100 nM. Turning to `C[C@@H]1CN(c2cc(S(=O)(=O)NC3(C#N)CC3)cc3c2cnn3-c2nnc(C(F)F)s2)CCN1C(=O)C(N)=O` [EVO29298], the IC50 is under 100 nM.

The compound `C[C@@H]1CN(c2cc(S(=O)(=O)NC3(C#N)CC3)cc3c2cnn3-c2nnc(C(F)F)s2)CCN1C(=O)C(=O)C1CC1` [EVO29386] came in with an IC50 of 100 to 500 nM. With `CCOC(C(=O)N1CCN(c2cc(S(=O)(=O)NC3(C#N)CC3)cc3c2cnn3-c2nnc(C(F)F)s2)C[C@H]1C)C1CC1` (single isomer, unassigned) [EVO29710P1], the IC50 was under 100 nM. Then `CO[C@H](C)C(=O)N1CCN(c2cc(S(=O)(=O)NC3(C#N)CC3)cc3c2cnn3-c2nnc(C(F)F)s2)C[C@H]1C` [EVO29409], with under 100 nM; and `C[C@@H]1CN(c2cc(S(=O)(=O)NC3(C#N)CC3)cc3c2cnn3-c2nnc(C(F)F)s2)CCN1C(=O)C(O)C(C)(C)C(F)F` (single isomer, unassigned) [EVO29752P2], with under 100 nM. Then `CCOC(C(=O)N1CCN(c2cc(S(=O)(=O)NC3(C#N)CC3)cc3c2cnn3-c2nnc(C(F)F)s2)C[C@H]1C)C1CC1` (single isomer, unassigned) [EVO29710P2], with under 100 nM; and `Cc1nnc(-n2ncc3c(N4CCN(C(=O)[C@@H](C)O)[C@H](C)C4)cc(S(=O)(=O)NC4(C#N)CC4)cc32)s1` [EVO29336], with under 100 nM; and `C[C@H](O)C(=O)N1CCN(c2cc(S(=O)(=O)NC3(C#N)CC3)cc3c2cnn3-c2nnc(C(F)F)s2)C[C@H]1C` [EVO29334], with under 100 nM. Then `C[C@@H]1CN(c2cc(S(=O)(=O)NC3(C#N)CC3)cc3c2c(F)nn3-c2nnc(C(F)F)s2)CCN1C(=O)[C@@](C)(O)C(F)(F)F` [EVO29761], with under 100 nM; and `C[C@H](CO)C(=O)N1CCN(c2cc(S(=O)(=O)NC3(C#N)CC3)cc3c2cnn3-c2nnc(C(F)F)s2)C[C@H]1C` [EVO29351], with under 100 nM. In turn, `Cc1nnc(-n2ncc3c(N4CCN(C(=O)C(=O)C(C)(C)C)[C@H](C)C4)cc(S(=O)(=O)NC4(C#N)CC4)cc32)s1` [EVO29407] displayed an IC50 of under 100 nM. Then `C[C@@H]1CN(c2cc(S(=O)(=O)NC3(C#N)CC3)cc3c2cnn3-c2nnc(C(F)F)s2)CCN1C(=O)C(C)(C)O` [EVO29339], with under 100 nM. On to `C[C@@H]1CN(c2cc(S(=O)(=O)NC3(C#N)CC3)cc3c2cnn3-c2nnc(C(F)F)s2)CCN1C(=O)C(O)C1CC1` (single isomer, unassigned) [EVO29534], for which the IC50 was under 100 nM. For `C[C@@H]1CN(c2cc(S(=O)(=O)NC3(C#N)CC3)cc3c2ccn3-c2nnc(C(F)F)s2)CCN1C(=O)[C@H](O)C(C)(C)C` [EVO29788], the IC50 was under 100 nM. Then `C[C@@H]1CN(c2cc(S(=O)(=O)NC3(C#N)CC3)cc3c2cnn3-c2nnc(C(F)F)s2)CCN1C(=O)C(O)C(C)(C)C(F)F` (single isomer, unassigned) [EVO29752P1], with under 100 nM; and `C[C@@H]1CN(c2cc(S(=O)(=O)NC3(C#N)CC3)cc3c2c(F)nn3-c2nnc(C(F)F)s2)CCN1C(=O)[C@H](O)C(C)(C)C` [EVO29757], with under 100 nM; and `C[C@@H]1CN(c2cc(S(=O)(=O)NC3(C)CC3)cc3c2cnn3-c2nnc(C(F)F)s2)CCN1C(=O)[C@](C)(O)C(F)(F)F` [EVO29496], with under 100 nM. Then `Cc1nnc(-n2ncc3c(N4CCN(C(=O)C(=O)C(C)(C)C)[C@H](C)C4)cc(S(=O)(=O)NC4(C)CC4)cc32)s1` [EVO29408], with under 100 nM.

On to `Cc1nnc(-n2ncc3c(N4CCN(C(=O)C(=O)C(C)C)[C@H](C)C4)cc(S(=O)(=O)NC4(C)CC4)cc32)s1` [EVO29384], for which the IC50 is under 100 nM. Then `C[C@@H]1CN(c2cc(S(=O)(=O)NC3(C#N)CC3)cc3c2cnn3-c2nnc(C(F)F)s2)CCN1C(=O)C(O)C(C)(C)CO` (single isomer, unassigned) [EVO29790P1], with under 100 nM; and `COC(C(=O)N1CCN(c2cc(S(=O)(=O)NC3(C#N)CC3)cc3c2cnn3-c2nnc(C(F)F)s2)C[C@H]1C)C1CC1` (single isomer, unassigned) [EVO29715P1], with under 100 nM. Then `CO[C@@H](C(=O)N1CCN(c2cc(S(=O)(=O)NC3(C)CC3)cc3c2cnn3-c2nnc(C(F)F)s2)C[C@H]1C)C(C)C` [EVO29419], with under 100 nM; and `CC(C)C(=O)C(=O)N1CCN(c2cc(S(=O)(=O)NC3(C)CC3)cc3c2cnn3-c2nnc(C(F)F)s2)C[C@H]1C` [EVO29383], with under 100 nM; and `CC(=O)C(=O)N1CCN(c2cc(S(=O)(=O)NC3(C)CC3)cc3c2cnn3-c2nnc(C(F)F)s2)C[C@H]1C` [EVO29388], with under 100 nM. Consider `Cc1nnc(-n2ncc3c(N4CCN(C(=O)C(=O)C(C)C)[C@H](C)C4)cc(S(=O)(=O)NC4(C#N)CC4)cc32)s1` [EVO29385], for which the IC50 was under 100 nM.

`Cc1nnc(-n2ncc3c(N4CCN(C(=O)[C@@H](N)CO)[C@H](C)C4)cc(S(=O)(=O)NC4(C)CC4)cc32)s1` [EVO29314] had an IC50 of 100 to 500 nM. Then `CO[C@H](C)C(=O)N1CCN(c2cc(S(=O)(=O)NC3(C)CC3)cc3c2cnn3-c2nnc(C(F)F)s2)C[C@H]1C` [EVO29410], with under 100 nM.

The compound `C[C@@H]1CN(c2cc(S(=O)(=O)NC3(C#N)CC3)cc3c2nnn3-c2nnc(C(F)F)s2)CCN1C(=O)[C@H](O)C(C)(C)C` [EVO29725] gave an IC50 of 100 to 500 nM. Take `C[C@@H]1CN(c2cc(S(=O)(=O)NC3(C#N)CC3)cc3c2cnn3-c2nnc(C(F)F)s2)CCN1C(=O)[C@@](C)(O)C(F)(F)F` [EVO29463]: the IC50 was under 100 nM. On to `CO[C@H](C)C(=O)N1CCN(c2cc(S(=O)(=O)NC3(C#N)CC3)cc3c2cnn3-c2nnc(C)s2)C[C@H]1C` [EVO29411], for which the IC50 was under 100 nM.
